US10828269B2, “Reducing muscle atrophy by administering astaxanthin” (FUJI CHEMICAL INDUSTRIES CO., LTD., priority 2004, dated 2020)

Legend:
Experiment in all cases: GENEchip mRNA expression in gastrocnemius
Assay type in all cases: in vivo, rat
[1] = system: Protein phosphatase 3, catalytic subunit gamma isoform; conditions: probe 1398469_at
Protocol: [The source words this procedure for another organism and reports this organism under the same test.] (§1) After the period of test breeding, kidney was removed and frozen at −80° C. Using an LM200 system (Olympus Corporation), the renal glomerulus was cut from kidney of mice while keeping low temperature. tRNA of renal glomerulus was extracted using tRNA extraction regent “Isogen” (produced by Nippon Gene Co., Ltd.), and then preparation of cRNA and hybridization were performed according to the Affymetrix GeneChip Eukaryotic Small Sample Target Labeling Assay Ver. II.
(§2) (1) Synthesis of first strand cDNA: 1 μL of total RNA solution and 1 of 5 μM T7-Oligo(dT) primer were mixed, heated at 70° C. for 6 minutes, and then cooled at 4° C. for 2 minutes. 3 μL of RT_Premix_1 (1.5 μL DEPC-treated water, 4 μL 5× First strand Buffer, 2 μL DTT (0.1 M), 1.5 μL dNTP Mix (10 mM), 1 μL RNase inhibitor (40 U/μL), and 2 μL Super-Script II (200 U/μL)) was added and reverse transcribed at 42° C. for 1 hour. The sample was heated at 70° C. for 10 minutes to inactivate Super Script II, and then cooled to 4° C. (2) Synthesis of second strand cDNA: 32.5 μl of SS_Premix_1 (91 μL DEPC-treated water, 30 μL 5× Second Strand Buffer, 3 μL dNTP (10 mM), 1 μL E. coli DNA ligase (10 U/μL); 4 μL E. coli DNA polymerase (10 U/μL), and 1 μL RNase H (2 U/μL)) was added to the first strand cDNA solution and allowed to react for 2 hours at 16° C. (3) To the resulting cDNA, was added 1 μL T4 DNA polymerase (5 U/μl) and allowed to react for 10 minutes at 16° C., and purified by ethanol precipitation. (4) In vitro transcription: To the dried double-stranded cDNA pellet, was added 10 μL of reagents (4 μL DEPC-treated water, 4 μL premixed NTPs, 1 μL 10× reaction buffer, and 1 μL 10× enzyme mix), and allowed to react at 37° C. in a water bath for 6 hours. (5) First cycle cRNA was purified using the RNeasy Mini Kit in accordance with the protocol in the handbook (QIAGEN). (6) Subsequently, for the amplification and labeling, the cRNA sample was mixed with random primers (0.2 μg/μL), treated at 70° C. for 10 minutes, cooled on ice for 2 minutes, 5 μL of RT_Premix_2 (5× First Strand Buffer, DTT (0.1 M), dNTP mix (10 mM), RNase inhibitor (40 U/μL), and SuperScript II (200 U/μL) was added, and allowed to react at 42° C. for 1 hour. (7) Next, Second Sstrand cDNA synthesis was carried out by adding 5 μM T7-Oligo(dT) promoter treating at 70° C. for 6 minutes, cooling at 4° C., and adding 62 μL of SS_Premix_2 (43 μL it DEPC-treated water, 15 μL 5× Second Strand Buffer, 1.5 μL dNTP mix (10 mM), and 2 μL E. coli DNA polymerase (10 U/μL)). (8) To the resulting cDNA, was treated added 1 μL of T4 DNA polymerase (5 U/μL), allowed to react at 16° C. for 10 minutes, and purified by ethanol precipitation. (9) To perform in vitro transcription and labeling with the ENZO BioArray High Yield RNA Transcript Labeling Kit, 40 μL of reagents (22 μL DEPC-treated solution, 4 μL 10×HY reaction buffer, 4 μL 10× biotin-labeled ribonucleotides, 4 μL 10×DTT, 4 μL 10× RNase to inhibition mix, and 2 μL 20× T7 RNA polymerase) were added, and allowed to react at 37° C. for 4 hours. (10) Labeled cRNA target was purified with RNeasy columns. (11) The fragmentation and hybridization were performed according to “GeneChip Expression Analysis Technical Manual”.
(§3) The prepared labeled cRNA was hybridized to a GeneChip “mouse Expression Set 430A, representing a total of 22,690 mouse transcripts” (Affymetrix). For data analysis, the GeneChip Analysis Suite Ver. 5.1 (Affymetrix) was used. All microarrays were scaled to a target intensity of 1000 and were compared with background, noise, and overall staining intensity. Differentially expressed transcripts were identified by algorithms of the software y Affymetrix.
(§4) 9-week-old Wistar male rats were bred each being fed a normal diet for breeding and water ad libitum under the conditions with a 12 hours light-dark cycle at a temperature of 21° C. to 25° C. and were accustomed to the environment in advance. […]

[2] = system: very low density lipoprotein receptor; conditions: probe 1369098_at
Protocol: as §1, §2, §3, §4

[3] = system: murine thymoma viral (v-akt) oncogene homolog 2; conditions: probe 1387353_at
Protocol: as §1, §2, §3, §4

[4] = system: ATP-binding cassette, sub-family B (MDR/TAP), member; conditions: probe 1369161_at
Protocol: as §1, §2, §3, §4

[5] = system: transforming growth factor, beta 2; conditions: probe 1387172_a_at
Protocol: as §1, §2, §3, §4

[6] = system: neuronatin; conditions: probe 1369999_a_at
Protocol: [The source words this procedure for another organism and reports this organism under the same test.] as §1, §2, §3, §4

[7] = system: RT1 class II, locus Ba; conditions: probe 1377334_at
[8] = denervated left leg gastrocnemius, astaxanthin group vs control group
[9] = denervated left leg gastrocnemius, astaxanthin-administered group
[10] = right leg (control) gastrocnemius, astaxanthin group vs control group
[11] = right leg (control) gastrocnemius, astaxanthin-administered group

Which “gene expression intensity ratio ad/nd” value [1, 8] does the source give for `CC1=C(/C=C/C(C)=C/C=C/C(C)=C/C=C/C=C(C)/C=C/C=C(C)/C=C/C2=C(C)C(=O)C(O)CC2(C)C)C(C)(C)CC(O)C1=O` (stereo not drawn) [astaxanthin, 3,3′-dihydroxy-β,β-carotene-4,4′-dione] here?
Its value is 1.90.

What about the luminescence intensity ad [1, 9] of the same compound?
The luminescence intensity ad was 333.1.

And the “gene expression intensity ratio ac/nc” value [1, 10]?
Its value is 1.09.

And the luminescence intensity ac [1, 11]?
The luminescence intensity ac was 523.6.

What about the “gene expression intensity ratio ad/nd” value [2, 8] of the same compound?
Its value is 1.49.

What about the luminescence intensity ad [2, 9] of the same compound?
Its luminescence intensity ad is 318.

What about the “gene expression intensity ratio ac/nc” value [2, 10] of the same compound?
Its value is 1.00.

What about the luminescence intensity ac [2, 11] of the same compound?
The luminescence intensity ac was 500.5.

And the “gene expression intensity ratio ad/nd” value [3, 8]?
The value was 0.67.

And the luminescence intensity ad [3, 9]?
The luminescence intensity ad was 1042.6.

What about the “gene expression intensity ratio ac/nc” value [3, 10] of the same compound?
Its value is 0.83.

What about the luminescence intensity ac [3, 11] of the same compound?
The luminescence intensity ac was 715.4.

What about the “gene expression intensity ratio ad/nd” value [4, 8] of the same compound?
The value was 1.41.

And the luminescence intensity ad [4, 9]?
Its luminescence intensity ad is 306.9.

And the “gene expression intensity ratio ac/nc” value [4, 10]?
Its value is 1.34.

What about the luminescence intensity ac [4, 11] of the same compound?
The luminescence intensity ac was 677.1.

And the “gene expression intensity ratio ad/nd” value [5, 8]?
Its value is 0.57.

And the luminescence intensity ad [5, 9]?
Its luminescence intensity ad is 677.8.

And the “gene expression intensity ratio ac/nc” value [5, 10]?
The value was 1.06.

What about the luminescence intensity ac [5, 11] of the same compound?
Its luminescence intensity ac is 479.9.

And the “gene expression intensity ratio ad/nd” value [6, 8]?
The value was 0.61.

What about the luminescence intensity ad [6, 9] of the same compound?
The luminescence intensity ad was 640.7.

And the “gene expression intensity ratio ac/nc” value [6, 10]?
Its value is 0.79.

And the luminescence intensity ac [6, 11]?
Its luminescence intensity ac is 106.4.

What about the “gene expression intensity ratio ad/nd” value [7, 8] of the same compound?
The value was 0.51.

What about the luminescence intensity ad [7, 9] of the same compound?
The luminescence intensity ad was 312.

And the “gene expression intensity ratio ac/nc” value [7, 10]?
The value was 1.60.

And the luminescence intensity ac [7, 11]?
The luminescence intensity ac was 220.5.
